Measured values taken from patent US20140087362A1 (priority 2012, published 2014).
Entries after “also recorded” stand apart in the source; their conditions may differ.

Columns and labels:
mouse bone marrow cells = experiment: Side population by Hoechst 33342 staining and flow cytometry
HMLE cells = experiment: EMT induction in human mammary epithelial cells; format: cell-based
Protocol: Human mammary epithelial cells (HMLE; Dr. Robert A. Weinberg) were plated at a density of about 50% in DMEM/F-12 medium and incubated overnight at 37° C. in a CO2 incubator. The cells were then cultured in inducing medium (DMEM/F-12 (1:1) medium supplemented with insulin, hydrocortisone, 5% FBS, and 2.5 ng/mL TGF-β1) to induce EMT or non-inducing medium (i.e. without TGF-β1). The inducing medium or non-inducing medium was refreshed every 3 days for 12 days. Following EMT treatment, one set of cells were immunostained for E-cadherin, vimentin and fibronectin expression, three widely used EMT markers. Another set of cells was harvested, stained for CD44 and CD24 expression and analyzed by flow cytometry as described in Example 27.
For immunostaining of E-cadherin, vimentin and fibronectin, cells were fixed and permeabilized on the culture plates and incubated with FITC-conjugated antibodies against E-cadherin, vimentin and fibronectin using a standard cell staining protocol. Following removal of unbound antibody, the cells were counterstained with the nuclear dye 4′,6-diamidino-2-phenylindole (DAPI). After staining, phase contrast and fluorescent images of the cells were taken using a fluorescence microscope, equipped with the appropriate filters and a digital camera, using a 100× objective.

[1] = tested on: A549 lung cancer cell line; experiment: Side population by Hoechst 33342 staining and flow cytometry; format: cell-based, human
ALDH1 = experiment: ALDEFLUOR assay with or without DEAB; format: cell-based, human
Protocol: Aldehyde dehydrogenase (ALDH1) is a useful marker for isolating primitive stem cell populations including normal human mammary stem and progenitor cells as well as transformed tumor-initiating stem cells. In this example, GI-101A, MCF7, MDA-MB-231, Hs 578T, and SUM139PT breast cancer cell lines were tested for activity of the ALDH1 marker using a commercial assay to detect ALDH1 expression and thereby identify tumor stem cells (the ALDEFLUOR® assay (available from Stemcell™ Technologies, Vancouver BC, CA; see Ginestier et al. (2007) Cell Stem Cell 1(5):555-567)). […] The ALDH substrate fluoresces upon cleavage by ALDH.
ALDEFLUOR® assay fluorescence was excited at 488 nm and fluorescence emission was detected using a standard FITC 530/30 band pass filter. The sorting gates were established using propidium iodide stained cells for viability and the ALDEFLUOR® assay-stained cells treated with DEAB as negative controls.
To supplement the flow cytometric analysis, the presence of ALDH in GI-101A was assessed visually by fluorescence microscopy. ALDEFLUOR® assay-labeled cells, with or without DEAB, were counterstained with the nuclear dye 4′,6-diamidino-2-phenylindole (DAPI). Phase contrast and fluorescent images of the cells were taken using a fluorescence microscope, equipped with the appropriate filters and a digital camera, using a 100× objective.
First an ALDEFLUOR assay was performed on GI-101 cells in the presence or absence of DEAB inhibitor as described in Example 21. The ALDEFLUOR stained cells were then subjected to staining with CD44, CD24 and CD49f antibodies. The ALDEFLUOR stained cells were centrifuged for 10 minutes at 300×g at 4° C. and resuspended to a concentration of 2×10^7 cells per mL in cold staining buffer. 50 μL it of cells were added to 12×75 round bottoms tubes on ice for each stain. 10 μL diluted antibody mixture was added and incubated for 30-45 minutes in an ice bath to minimize release of the Hoechst dye. […] The cells were washed twice with 2 mL staining buffer at 4° C. The cells were resuspended in 400 μL it staining buffer and kept on ice until analyzed by flow cytometry.

## COc1ccc(CCN(C)CCCC(C#N)(c2ccc(OC)c(OC)c2)C(C)C)cc1OC (stereo not shown) [Verapamil]
Mouse bone marrow cells; 50 μM
  side population, percent of registered events: 3.74±0.3%
Mouse bone marrow cells; 100 μM
  side population, percent of registered events: 1.76±0.1%

## TGF-β1: transforming growth factor β used to induce EMT
HMLE cells; 2.5 ng/mL, 12 days EMT induction
  CD44^+/CD24^−/low cells: 51.9%±3
HMLE cells; 12 days post-EMT induction, versus non-induced
  EMT marker expression (E-cadherin, vimentin, fibronectin): E-cadherin expression was down-regulated; also recorded: vimentin expression was up-regulated; also recorded: fibronectin expression was up-regulated

## COC(=O)[C@H]1[C@H]2C[C@@H]3c4[nH]c5cc(OC)ccc5c4CCN3C[C@H]2C[C@@H](OC(=O)c2cc(OC)c(OC)c(OC)c2)[C@@H]1OC [reserpine]
[1]; 12.5 μM
  side population cells: 1.51±0.1%
[1]; 25 μM
  side population cells: 0.56±0.08%
[1]; 50 μM
  side population cells: 0.51±0.01%
[1]; 200 μM
  side population cells: 0.48±0.06%

## CCN(CC)c1ccc(C=O)cc1 [DEAB]
ALDH1; CD44/CD24 staining set
  ALDH− cells: 99.9%
ALDH1; CD44/CD49f staining set
  ALDH+ cells: 0.09%
  ALDH− cells: 99.9%
ALDH1; GI-101 cells, CD44/CD24 staining set
  ALDH+ cells: 0.09%

## COc1ccc2c3c([nH]c2c1)[C@H](C=C(C)C)N1C(=O)[C@@H]2CCCN2C(=O)[C@@H]1C3 [FTC, Fumitremorgin C]
[1]; 25 μM
  side population cells: 1.31±0.2%
[1]; 50 μM
  side population cells: 0.92±0.2%
[1]; 100 μM
  side population cells: 0.62±0.1%
[1]; 200 μM
  side population cells: 0.46±0.08%
